Experimental data reported in ChEMBL document CHEMBL3217494, “Selective inhibition of EGFR and VEGFR2 tyrosine kinases controlled by a boronic acid substituent on 4-anilinoquinazolines” (Medchemcomm, 2010).
Calls of active or inactive are those of the source. The rule behind the calls is not given here.

What was measured:
[1] = molecular target: T1, Epidermal growth factor receptor (Homo sapiens, UniProt P00533); experiment: Inhibition of EGFR catalytic domain (unknown origin) assessed as reduction of poly(Glu:Tyr) substrate phosphorylation after 20 mins by ELISA
[2] = molecular target: Receptor tyrosine-protein kinase erbB-2 (Homo sapiens, UniProt P04626); experiment: Inhibition of HER2 catalytic domain (unknown origin) assessed as reduction of poly(Glu:Tyr) substrate phosphorylation after 20 mins by ELISA
Sequence of Receptor tyrosine-protein kinase erbB-2 (P04626 whole entry, the tested form may be a part): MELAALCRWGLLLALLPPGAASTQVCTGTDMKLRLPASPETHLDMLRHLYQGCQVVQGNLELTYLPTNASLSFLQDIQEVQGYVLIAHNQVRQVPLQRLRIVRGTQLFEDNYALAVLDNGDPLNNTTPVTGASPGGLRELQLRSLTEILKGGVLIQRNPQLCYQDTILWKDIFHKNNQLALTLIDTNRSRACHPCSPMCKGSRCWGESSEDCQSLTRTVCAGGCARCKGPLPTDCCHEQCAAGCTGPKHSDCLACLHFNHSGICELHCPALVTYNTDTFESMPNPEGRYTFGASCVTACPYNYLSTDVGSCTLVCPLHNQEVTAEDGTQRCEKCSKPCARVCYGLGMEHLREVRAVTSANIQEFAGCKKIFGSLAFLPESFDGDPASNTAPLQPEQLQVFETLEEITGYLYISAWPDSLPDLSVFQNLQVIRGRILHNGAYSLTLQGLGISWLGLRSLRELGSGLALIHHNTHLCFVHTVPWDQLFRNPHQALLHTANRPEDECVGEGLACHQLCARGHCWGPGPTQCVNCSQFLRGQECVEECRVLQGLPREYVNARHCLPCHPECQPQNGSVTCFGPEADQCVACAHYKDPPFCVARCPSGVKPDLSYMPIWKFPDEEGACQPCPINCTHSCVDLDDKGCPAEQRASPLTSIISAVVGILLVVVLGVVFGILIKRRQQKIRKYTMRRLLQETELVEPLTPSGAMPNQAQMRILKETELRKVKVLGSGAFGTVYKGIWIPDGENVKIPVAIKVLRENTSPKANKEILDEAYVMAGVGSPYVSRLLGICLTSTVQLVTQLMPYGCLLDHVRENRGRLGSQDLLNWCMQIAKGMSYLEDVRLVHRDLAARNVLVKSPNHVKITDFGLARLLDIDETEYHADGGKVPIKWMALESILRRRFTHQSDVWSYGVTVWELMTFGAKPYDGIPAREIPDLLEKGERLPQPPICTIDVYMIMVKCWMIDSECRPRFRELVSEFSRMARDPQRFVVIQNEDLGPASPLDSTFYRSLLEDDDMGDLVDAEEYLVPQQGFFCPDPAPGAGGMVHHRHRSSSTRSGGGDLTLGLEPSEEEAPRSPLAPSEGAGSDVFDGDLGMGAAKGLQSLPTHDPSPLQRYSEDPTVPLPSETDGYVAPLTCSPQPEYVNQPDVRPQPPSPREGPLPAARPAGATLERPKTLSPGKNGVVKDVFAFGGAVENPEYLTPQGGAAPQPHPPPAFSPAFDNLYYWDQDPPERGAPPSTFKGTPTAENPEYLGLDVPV

[3] = molecular target: Vascular endothelial growth factor receptor 1 (Homo sapiens, UniProt P17948); experiment: Inhibition of Flt-1 catalytic domain (unknown origin) assessed as reduction of poly(Glu:Tyr) substrate phosphorylation after 20 mins by ELISA
Sequence of Vascular endothelial growth factor receptor 1 (P17948 whole entry, the tested form may be a part): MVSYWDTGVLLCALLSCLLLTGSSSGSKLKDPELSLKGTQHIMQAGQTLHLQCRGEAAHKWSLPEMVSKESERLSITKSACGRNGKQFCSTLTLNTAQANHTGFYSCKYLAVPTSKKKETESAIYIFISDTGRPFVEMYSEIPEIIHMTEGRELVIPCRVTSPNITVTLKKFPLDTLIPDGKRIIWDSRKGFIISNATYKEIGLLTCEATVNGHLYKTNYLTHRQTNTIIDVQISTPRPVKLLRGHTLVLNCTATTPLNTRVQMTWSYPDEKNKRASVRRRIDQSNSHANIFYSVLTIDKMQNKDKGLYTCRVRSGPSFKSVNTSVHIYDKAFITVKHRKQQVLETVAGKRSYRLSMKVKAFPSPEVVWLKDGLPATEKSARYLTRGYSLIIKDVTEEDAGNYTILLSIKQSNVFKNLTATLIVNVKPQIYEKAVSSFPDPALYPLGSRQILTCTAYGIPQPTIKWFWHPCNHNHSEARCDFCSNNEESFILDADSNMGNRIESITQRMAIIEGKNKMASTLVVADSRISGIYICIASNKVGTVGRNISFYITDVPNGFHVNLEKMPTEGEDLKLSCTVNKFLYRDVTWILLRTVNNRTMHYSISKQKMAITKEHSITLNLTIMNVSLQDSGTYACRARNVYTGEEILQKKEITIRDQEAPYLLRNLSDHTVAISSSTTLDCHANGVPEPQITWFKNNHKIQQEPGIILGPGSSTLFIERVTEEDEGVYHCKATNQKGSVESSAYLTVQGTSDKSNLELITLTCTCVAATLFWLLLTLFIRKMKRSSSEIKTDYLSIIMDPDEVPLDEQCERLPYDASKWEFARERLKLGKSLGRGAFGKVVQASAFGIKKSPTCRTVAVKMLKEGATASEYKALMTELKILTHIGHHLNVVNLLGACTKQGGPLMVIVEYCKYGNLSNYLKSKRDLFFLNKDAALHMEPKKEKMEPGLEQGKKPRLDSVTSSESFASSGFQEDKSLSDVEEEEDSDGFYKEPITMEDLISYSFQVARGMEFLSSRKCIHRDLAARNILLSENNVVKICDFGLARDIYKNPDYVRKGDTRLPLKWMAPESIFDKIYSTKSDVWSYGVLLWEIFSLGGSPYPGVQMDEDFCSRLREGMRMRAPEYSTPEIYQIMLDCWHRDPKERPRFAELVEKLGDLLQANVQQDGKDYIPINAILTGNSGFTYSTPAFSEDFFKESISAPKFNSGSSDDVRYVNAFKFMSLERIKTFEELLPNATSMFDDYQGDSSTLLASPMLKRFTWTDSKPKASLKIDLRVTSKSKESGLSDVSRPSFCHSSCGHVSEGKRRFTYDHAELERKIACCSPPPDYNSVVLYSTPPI

[4] = molecular target: T2, Vascular endothelial growth factor receptor 2 (Homo sapiens, UniProt P35968); experiment: Inhibition of KDR catalytic domain (unknown origin) assessed as reduction of poly(Glu:Tyr) substrate phosphorylation after 20 mins by ELISA
T2 sequence (P35968 whole entry, the tested form may be a part): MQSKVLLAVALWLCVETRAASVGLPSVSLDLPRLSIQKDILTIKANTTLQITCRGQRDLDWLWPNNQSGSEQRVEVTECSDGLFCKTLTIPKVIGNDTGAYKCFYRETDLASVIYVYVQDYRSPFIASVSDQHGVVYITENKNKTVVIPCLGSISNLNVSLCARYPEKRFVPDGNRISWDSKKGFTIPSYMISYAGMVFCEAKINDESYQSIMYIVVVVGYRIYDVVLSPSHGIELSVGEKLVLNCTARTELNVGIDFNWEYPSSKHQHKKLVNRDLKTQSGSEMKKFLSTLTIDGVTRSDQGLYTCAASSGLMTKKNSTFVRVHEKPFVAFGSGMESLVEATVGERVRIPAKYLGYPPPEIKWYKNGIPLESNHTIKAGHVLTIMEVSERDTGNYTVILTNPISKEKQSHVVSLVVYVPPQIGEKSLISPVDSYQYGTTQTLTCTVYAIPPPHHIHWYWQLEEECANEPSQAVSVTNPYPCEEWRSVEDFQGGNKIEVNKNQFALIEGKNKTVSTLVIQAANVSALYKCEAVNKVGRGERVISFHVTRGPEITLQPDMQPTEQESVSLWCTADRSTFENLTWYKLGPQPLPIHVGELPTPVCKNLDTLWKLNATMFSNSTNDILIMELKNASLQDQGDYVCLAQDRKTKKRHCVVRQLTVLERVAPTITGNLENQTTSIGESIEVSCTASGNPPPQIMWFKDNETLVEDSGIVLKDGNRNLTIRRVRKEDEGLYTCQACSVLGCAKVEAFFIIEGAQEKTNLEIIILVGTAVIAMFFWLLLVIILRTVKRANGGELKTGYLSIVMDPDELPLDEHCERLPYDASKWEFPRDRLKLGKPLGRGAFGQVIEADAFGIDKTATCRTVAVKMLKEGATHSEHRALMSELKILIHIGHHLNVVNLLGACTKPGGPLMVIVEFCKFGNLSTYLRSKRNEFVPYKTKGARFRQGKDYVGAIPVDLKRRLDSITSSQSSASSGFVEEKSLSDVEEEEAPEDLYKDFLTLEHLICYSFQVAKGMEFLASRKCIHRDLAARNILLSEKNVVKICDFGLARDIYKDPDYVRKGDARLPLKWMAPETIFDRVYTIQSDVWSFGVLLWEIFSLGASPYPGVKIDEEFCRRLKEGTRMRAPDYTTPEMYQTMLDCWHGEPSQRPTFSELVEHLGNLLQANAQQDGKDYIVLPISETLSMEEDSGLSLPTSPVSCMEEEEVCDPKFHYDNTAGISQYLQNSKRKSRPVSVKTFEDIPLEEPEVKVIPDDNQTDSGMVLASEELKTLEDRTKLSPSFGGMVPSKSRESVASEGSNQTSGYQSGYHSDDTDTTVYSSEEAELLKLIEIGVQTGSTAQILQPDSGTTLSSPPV

[5] = molecular target: T1, Epidermal growth factor receptor; experiment: Inhibition of EGF-induced EGFR autophosphorylation in human A431 cells at 1 uM by immunoblot analysis; assay type: cell-based; details: A-431
[6] = molecular target: T1, Epidermal growth factor receptor; experiment: Inhibition of EGFR in human A431 cells assessed as decrease in EGF-induced ERK phosphorylation at 1 uM by immunoblot analysis; assay type: cell-based; details: A-431
[7] = molecular target: T1, Epidermal growth factor receptor; experiment: Inhibition of EGFR in human A431 cells assessed as decrease in EGF-induced Akt phosphorylation at 1 uM by immunoblot analysis; assay type: cell-based; details: A-431
[8] = molecular target: T2, Vascular endothelial growth factor receptor 2; experiment: Inhibition of VEGF-induced KDR phosphorylation in human HUVEC cells at 1 uM by immunoblot analysis; assay type: cell-based

| IC50 [1] [nM] | IC50 [2] [nM] | IC50 [3] [nM] | IC50 [4] [nM] | inhibition [5] | inhibition [6] | inhibition [7] | inhibition [8] | SMILES |
| --- | --- | --- | --- | --- | --- | --- | --- | --- |
| 520 | > 1000 | > 1000 | > 1000 | Active | Active | Active | – | COc1cc2ncnc(Nc3ccc(F)c(Cl)c3)c2cc1B1OC(C)(C)C(C)(C)O1 |
| > 1000 | > 1000 | > 1000 | 860 | inactive | inactive | inactive | Active | COCCOc1cc2ncnc(Nc3ccc(B(O)O)cc3)c2cc1OC |
| 800 | > 1000 | > 1000 | > 1000 | Active | Active | Active | – | OB(O)c1ccc2ncnc(Nc3ccc(F)c(Cl)c3)c2c1 |
| > 1000 | > 1000 | > 1000 | 180 | inactive | inactive | inactive | Active | COCCOc1cc2ncnc(Nc3cccc(B(O)O)c3)c2cc1OC |
| > 1000 | > 1000 | > 1000 | 190 | inactive | inactive | inactive | Active | COCCOc1cc2ncnc(Nc3cccc(B(O)O)c3)c2cc1OCCOC |
| 460 | > 1000 | > 1000 | > 1000 | Active | Active | Active | – | COc1cc2ncnc(Nc3cccc(Cl)c3)c2cc1B(O)O |
| > 1000 | > 1000 | > 1000 | 36 | inactive | inactive | inactive | inactive | COc1cc2ncnc(Nc3ccc(B(O)O)cc3)c2cc1OC |
| 590 | > 1000 | > 1000 | > 1000 | Active | Active | Active | – | CC1(C)OB(c2ccc3ncnc(Nc4cccc(Cl)c4)c3c2)OC1(C)C |
| 510 | > 1000 | > 1000 | > 1000 | Active | Active | Active | – | COc1cc2ncnc(Nc3ccc(F)c(Cl)c3)c2cc1B(O)O |
| 490 | > 1000 | > 1000 | > 1000 | Active | Active | Active | – | COc1cc2ncnc(Nc3cccc(Cl)c3)c2cc1B1OC(C)(C)C(C)(C)O1 |
| 650 | > 1000 | > 1000 | > 1000 | Active | Active | Active | – | OB(O)c1ccc2ncnc(Nc3cccc(Cl)c3)c2c1 |
| – | > 1000 | – | – | – | – | – | – | O=C(Nc1cccc(C(F)(F)F)c1)c1ccccc1NCc1ccncc1 |
| 570 | > 1000 | > 1000 | > 1000 | Active | Active | Active | – | CC1(C)OB(c2ccc3ncnc(Nc4ccc(F)c(Cl)c4)c3c2)OC1(C)C |
| > 1000 | > 1000 | > 1000 | 390 | inactive | inactive | inactive | inactive | COc1cc2ncnc(Nc3cccc(B(O)O)c3)c2cc1OC |
| > 1000 | > 1000 | > 1000 | 37 | inactive | inactive | inactive | Active | COCCOc1cc2ncnc(Nc3ccc(B(O)O)cc3)c2cc1OCCOC |
